Experimental data as given in paper PMC12055641, “The Study of Antistaphylococcal Potential of Omiganan and Retro-Omiganan Under Flow Conditions” (Probiotics and Antimicrobial Proteins, 2024).

Tests used:
[1] = test system: S. aureus clinical strain 015N (MRSA); set-up: method as in earlier work; settings: clinical isolate 015N (MRSA), nasal swab; cited from earlier work
[2] = test system: S. aureus clinical strain 060S; set-up: method as in earlier work; settings: clinical isolate 060S, skin; cited from earlier work
[3] = test system: S. aureus ATCC 33591 (MRSA); assay: microbe, parasite or virus in culture
Description: (§1) Clinical S. aureus strains were collected from patients with atopic dermatitis during their visits to the Outpatient Clinic and hospitalization in the Department of Dermatology, Venereology and Allergology at Medical University of Gdańsk (following the approval from the ethics committee, Approval Number NKBBN/242–477/2014). Reference strains of S. aureus ATCC 25923, S. aureus ATCC 33591, S. aureus ATCC 9144, and S. aureus ATCC 12598 were obtained from the American Type Culture Collection. All the strains were stored at − 80 °C in Roti®-Store cryo vials (Carl Roth GmbH, Karlsruhe, Germany) and before the tests were transferred into fresh Mueller–Hinton Medium (BioMaxima, Lublin, Poland) and incubated for 24 h at 37 °C. Subsequently, each bacterial inoculum was seeded on Mueller–Hinton agar plates (BioMaxima) and incubated again for 24 h. The cultures prepared in this way were used in further antimicrobial assays. Minimum inhibitory concentrations (MICs) were determined according to the Clinical and Laboratory Standards Institute recommendations. […] The experiments were conducted on 96-well microtiter plates, with a final volume of 100 μL. Additionally, in the case of daptomycin, the medium was supplemented with Ca^2+ (50 mg/L). Cell densities were adjusted spectrophotometrically (Multiskan™ GO Microplate Spectrophotometer, Thermo Scientific) at 600 nm. The MICs were taken as the lowest drug concentration at which a visible growth of the microorganisms was inhibited. Minimum biofilm eliminating concentrations (MBECs) were determined on 96-well flat-bottomed microtiter polystyrene plates with resazurin (7-hydroxy-3H-phenoxazin-3-one 10-oxide sodium salt) as a cell viability reagent. To do this, the plates were filled with 100 μL of the initial inoculums of bacteria (0.5 × 10^7 CFU/mL) in the Mueller–Hinton broth and incubated for 24 h at 37 °C. […] After 24 h of incubation, 20 μL of resazurin (4 mg/mL) was added to each well and the MBEC values were read. Minimum biofilm inhibitory concentrations (MBICs) were also determined on 96-well flat-bottomed microtiter polystyrene plates as described previously. To do this, 50 μL of the compounds in the concentration range, diluted MHB, were prepared. Subsequently, the 50 μL of the staphylococcal inoculums were added to reach the same density of bacteria as that in the MBEC assay. After 24 h of incubation at 37 °C, the wells were rinsed three times with PBS and the fresh medium (100 μL) with resazurin (0.6 mg/mL) was added. Then, after 1 h of incubation, MBICs were read. […] All experiments were conducted in triplicate.
(§2) Formation of the biofilm inside the PDMS flow chambers was performed using three peristaltic pumps working simultaneously (LP-pump, Kamush, Lipopharm, Poland) and sterile Tygon® 3350 silicone hoses (2.4 × 0.8 × 0.8 mm) with a length of 30 and 50 cm for inlet and outlet, respectively. Bacterial suspensions were prepared (0.5 × 10^7 CFU/mL) in sterile 50-mL test tubes, which were placed in a heating block at 37 °C. Before experiments, all channels were assessed for tightness and sterilized using a 70% 2-propanol solution (10 min, flow rate 1 mL/min) and rinsed with sterile PBS solution (10 min, flow 0.1 mL/min). The formation of biofilm inside the channels was divided into three stages: (1) adhesion—at this stage S. aureus suspensions were passed through the channels for 4 h at a flow rate of 0.1 mL/min; (2) rinsing—the previously used hoses were replaced with new sterile ones, and the channels were rinsed with sterile PBS solution for 10 min at a flow rate of 0.1 mL/min; (3) biofilm growth—after flushing the channels, the silicone hoses were placed in tubes with MHB medium, which was passed through the channels for 24 h at a flow rate of 0.1 mL/min. All experiments included growth and sterility controls.
(§3) This assay was conducted also on the S. aureus ATCC 25923 and S. aureus 33,591 (MRSA) strains.

S. aureus ATCC 25923 = assay: microbe, parasite or virus in culture
Description: as §1, §2, §3

[4] = test system: S. aureus clinical strain 043SC (MRSA); set-up: method as in earlier work; settings: clinical isolate 043SC (MRSA), skin of patient with furuncle folliculitis; cited from earlier work
[5] = test system: S. aureus clinical strain 030N; set-up: method as in earlier work; settings: clinical isolate 030N, nasal swab; cited from earlier work
[6] = test system: S. aureus clinical strain 051N (MRSA); set-up: method as in earlier work; settings: clinical isolate 051N (MRSA), nasal swab; cited from earlier work
[7] = test system: S. aureus clinical strain 009S; set-up: method as in earlier work; settings: clinical isolate 009S, skin; cited from earlier work
[8] = test system: S. aureus clinical strain 005S; set-up: method as in earlier work; settings: clinical isolate 005S, skin; cited from earlier work
[9] = test system: S. aureus clinical strain 004N (MRSA); set-up: method as in earlier work; settings: clinical isolate 004N (MRSA), nasal swab; cited from earlier work
[10] = test system: S. aureus clinical strain 031S; set-up: method as in earlier work; settings: clinical isolate 031S, skin; cited from earlier work
[11] = S. aureus ATCC 33591 (MRSA) biofilm treated under flow with Retro-Omiganan (half MBEC) for 24 h
[12] = S. aureus ATCC 33591 (MRSA) biofilm treated under flow with Retro-Omiganan (half MBEC) for 48 h
[13] = S. aureus ATCC 33591 (MRSA) biofilm treated under flow with Retro-Omiganan (half MBEC) for 72 h
[14] = S. aureus 25923 biofilm treated under flow with Retro-Omiganan (half MBEC) for 24 h
[15] = S. aureus 25923 biofilm treated under flow with Retro-Omiganan (half MBEC) for 48 h
[16] = S. aureus 25923 biofilm treated under flow with Retro-Omiganan (half MBEC) for 72 h
[17] = Staphylococcus aureus, ATCC25923, 0 h
[18] = Staphylococcus aureus, ATCC25923, 24 h
[19] = Staphylococcus aureus, ATCC25923, 48 h
[20] = Staphylococcus aureus, ATCC25923, 72 h
[21] = Staphylococcus aureus, ATCC33591|MRSA, 0 h, S. aureus ATCC 33591 (MRSA), time 0 h (baseline, before peptide exposure)
[22] = Staphylococcus aureus, ATCC33591|MRSA, 24 h, S. aureus ATCC 33591 (MRSA) biofilm treated under flow with Omiganan (half MBEC) for 24 h
[23] = Staphylococcus aureus, ATCC33591|MRSA, 24 h, S. aureus ATCC 33591 (MRSA) biofilm treated under flow with Retro-Omiganan (half MBEC) for 24 h
[24] = Staphylococcus aureus, ATCC33591|MRSA, 48 h, S. aureus ATCC 33591 (MRSA) biofilm treated under flow with Omiganan (half MBEC) for 48 h
[25] = Staphylococcus aureus, ATCC33591|MRSA, 48 h, S. aureus ATCC 33591 (MRSA) biofilm treated under flow with Retro-Omiganan (half MBEC) for 48 h
[26] = Staphylococcus aureus, ATCC33591|MRSA, 72 h, S. aureus ATCC 33591 (MRSA) biofilm treated under flow with Omiganan (half MBEC) for 72 h
[27] = Staphylococcus aureus, ATCC33591|MRSA, 72 h, S. aureus ATCC 33591 (MRSA) biofilm treated under flow with Retro-Omiganan (half MBEC) for 72 h
[28] = Staphylococcus aureus, ATCC25923, 0 h, S. aureus 25923, time 0 h (baseline, before peptide exposure)
[29] = Staphylococcus aureus, ATCC25923, 24 h, S. aureus 25923 biofilm treated under flow with Omiganan (half MBEC) for 24 h
[30] = Staphylococcus aureus, ATCC25923, 24 h, S. aureus 25923 biofilm treated under flow with Retro-Omiganan (half MBEC) for 24 h
[31] = Staphylococcus aureus, ATCC25923, 48 h, S. aureus 25923 biofilm treated under flow with Omiganan (half MBEC) for 48 h
[32] = Staphylococcus aureus, ATCC25923, 48 h, S. aureus 25923 biofilm treated under flow with Retro-Omiganan (half MBEC) for 48 h
[33] = Staphylococcus aureus, ATCC25923, 72 h, S. aureus 25923 biofilm treated under flow with Omiganan (half MBEC) for 72 h
[34] = Staphylococcus aureus, ATCC25923, 72 h, S. aureus 25923 biofilm treated under flow with Retro-Omiganan (half MBEC) for 72 h

C/C(=C\C(=O)OCCCCCCCCC(=O)O)C[C@@H]1OC[C@H](C[C@@H]2O[C@H]2[C@@H](C)[C@H](C)O)[C@@H](O)[C@H]1O [Mupirocin]
0.25 µg/mL: Antimicrobial susceptibility (MIC) [1] | Antimicrobial susceptibility (MIC) [5] | Antimicrobial susceptibility (MIC) [6]
32 µg/mL: Antimicrobial susceptibility (MIC) [10]
> 512 µg/mL: Antimicrobial susceptibility (MIC) [2] | Antimicrobial susceptibility (MIC) [7] | Antimicrobial susceptibility (MIC) [8]
≤ 0.25 µg/mL: MIC [3, 11] | MIC [3, 12] | MIC [3, 13] | MIC ([3]; Staphylococcus aureus, 0 h) | MIC ([3]; Staphylococcus aureus, 24 h) | MIC ([3]; Staphylococcus aureus, 48 h) | MIC ([3]; Staphylococcus aureus, 72 h) | MIC (S. aureus ATCC 25923; [14]) | MIC (S. aureus ATCC 25923; [15]) | MIC (S. aureus ATCC 25923; [16]) | MIC (S. aureus ATCC 25923; [17]) | MIC (S. aureus ATCC 25923; [18]) | MIC (S. aureus ATCC 25923; [19]) | MIC (S. aureus ATCC 25923; [20])
0.5 µg/mL: Antimicrobial susceptibility (MIC) [4]
0.125 µg/mL: Antimicrobial susceptibility (MIC) [9]

CC(=O)NC[C@H]1CN(c2ccc(N3CCOCC3)c(F)c2)C(=O)O1 [Linezolid]
0.25 µg/mL: Antimicrobial susceptibility (MIC) [7]
0.5 µg/mL: Antimicrobial susceptibility (MIC) [5] | Antimicrobial susceptibility (MIC) [8]
2 µg/mL: Antimicrobial susceptibility (MIC) [1] | Antimicrobial susceptibility (MIC) [4] | Antimicrobial susceptibility (MIC) [6] | Antimicrobial susceptibility (MIC) [10]
1 µg/mL: Antimicrobial susceptibility (MIC) [2] | MIC ([3]; Staphylococcus aureus, 0 h) | MIC ([3]; Staphylococcus aureus, 24 h) | MIC ([3]; Staphylococcus aureus, 48 h) | MIC ([3]; Staphylococcus aureus, 72 h) | MIC (S. aureus ATCC 25923; [17]) | MIC (S. aureus ATCC 25923; [18]) | MIC (S. aureus ATCC 25923; [19]) | MIC (S. aureus ATCC 25923; [20]) | Antimicrobial susceptibility (MIC) [9]
1.0 µg/mL: MIC [3, 11] | MIC [3, 12] | MIC [3, 13] | MIC (S. aureus ATCC 25923; [14]) | MIC (S. aureus ATCC 25923; [15]) | MIC (S. aureus ATCC 25923; [16])

CN(C)[C@@H]1C(O)=C(C(N)=O)C(=O)[C@@]2(O)C(O)=C3C(=O)c4c(O)cccc4[C@@](C)(O)[C@H]3C[C@@H]12 [Tetracycline]
0.125 µg/mL: Antimicrobial susceptibility (MIC) [2]
≤ 0.25 µg/mL: MIC (S. aureus ATCC 25923; [28]) | MIC (S. aureus ATCC 25923; [29]) | MIC (S. aureus ATCC 25923; [30]) | MIC (S. aureus ATCC 25923; [31]) | MIC (S. aureus ATCC 25923; [32]) | MIC (S. aureus ATCC 25923; [33]) | MIC (S. aureus ATCC 25923; [34])
0.25 µg/mL: Antimicrobial susceptibility (MIC) [6] | Antimicrobial susceptibility (MIC) [10]
64 µg/mL: MIC [3, 21] | MIC [3, 22] | MIC [3, 23] | MIC [3, 24] | MIC [3, 25] | MIC [3, 26] | MIC [3, 27]
1 µg/mL: Antimicrobial susceptibility (MIC) [7]
0.5 µg/mL: Antimicrobial susceptibility (MIC) [1] | Antimicrobial susceptibility (MIC) [5] | Antimicrobial susceptibility (MIC) [8] | Antimicrobial susceptibility (MIC) [9]
32 µg/mL: Antimicrobial susceptibility (MIC) [4]

CCCCCCCCCC(=O)N[C@@H](Cc1c[nH]c2ccccc12)C(=O)N[C@H](CC(N)=O)C(=O)N[C@@H](CC(=O)O)C(=O)N[C@@H]1C(=O)NCC(=O)N[C@@H](CCCN)C(=O)N[C@@H](CC(=O)O)C(=O)N[C@H](C)C(=O)N[C@@H](CC(=O)O)C(=O)NCC(=O)N[C@H](CO)C(=O)N[C@@H]([C@H](C)CC(=O)O)C(=O)N[C@@H](CC(=O)c2ccccc2N)C(=O)O[C@@H]1C [Daptomycin]
0.5 µg/mL: Antimicrobial susceptibility (MIC) [7]
4 µg/mL: Antimicrobial susceptibility (MIC) [8]
1 µg/mL: MIC [3, 12] | MIC [3, 25] | MIC [3, 27] | MIC (S. aureus ATCC 25923; [30]) | MIC (S. aureus ATCC 25923; [32]) | MIC (S. aureus ATCC 25923; [34]) | Antimicrobial susceptibility (MIC) [4]
2 µg/mL: Antimicrobial susceptibility (MIC) [1] | MIC ([3]; S. aureus ATCC 33591 (MRSA), time 0 h (baseline, before peptide exposure)) | MIC [3, 21] | MIC [3, 22] | MIC [3, 23] | MIC [3, 24] | MIC [3, 26] | MIC (S. aureus ATCC 25923; [28]) | MIC (S. aureus ATCC 25923; [29]) | MIC (S. aureus ATCC 25923; [31]) | MIC (S. aureus ATCC 25923; [33]) | Antimicrobial susceptibility (MIC) [6] | Antimicrobial susceptibility (MIC) [9]
0.125 µg/mL: Antimicrobial susceptibility (MIC) [2] | Antimicrobial susceptibility (MIC) [5] | Antimicrobial susceptibility (MIC) [10]
